Laboratory results: paper PMC9532703, “A novel small molecule RK-019 inhibits FGFR2-amplification gastric cancer cell proliferation and induces apoptosis in vitro and in vivo” (Frontiers in Pharmacology, 2022)

How the values were obtained:
Assay in all cases: Kinase selectivity panel
Type in all cases: biochemical
AAK1(h) = molecular target: T1, AAK1(h) (Homo sapiens, UniProt Q2M2I8); settings: read-out: Inhibition(%) @ 1 µM RK-019
T1 construct: purchased Eurofins Discovery Services (KinaseProfiler)
How it was run: (§1)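 Single-point selectivity screen: 1 µM compound, recombinant human enzyme, in vitro ATP-site competition binding; result expressed as inhibition ratio.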

ALK1(h) = molecular target: T2, ALK1(h) (Homo sapiens, UniProt P37023); settings: read-out: Inhibition(%) @ 1 µM RK-019
T2 construct: purchased Eurofins Discovery Services (KinaseProfiler)
How it was run: as §1

ALK6(h) = molecular target: T3, ALK6(h) (Homo sapiens, UniProt O00238); settings: read-out: Inhibition(%) @ 1 µM RK-019
T3 construct: purchased Eurofins Discovery Services (KinaseProfiler)
How it was run: as §1

AMPKα1(h) = molecular target: T4, AMPKα1(h) (Homo sapiens, UniProt Q13131); settings: read-out: Inhibition(%) @ 1 µM RK-019
T4 construct: purchased Eurofins Discovery Services (KinaseProfiler)
How it was run: as §1

Abl (Q252H) (h) = molecular target: T5, Abl (Q252H) (h) (Homo sapiens, UniProt P00519, Q252H); settings: read-out: Inhibition(%) @ 1 µM RK-019
T5 construct: purchased Eurofins Discovery Services (KinaseProfiler)
How it was run: as §1

Abl(h) = molecular target: T6, Abl(h) (Homo sapiens, UniProt P00519); settings: read-out: Inhibition(%) @ 1 µM RK-019
T6 construct: purchased Eurofins Discovery Services (KinaseProfiler)
How it was run: as §1

Aurora-C(h) = molecular target: T7, Aurora-C(h) (Homo sapiens, UniProt Q9UQB9); settings: read-out: Inhibition(%) @ 1 µM RK-019
T7 construct: purchased Eurofins Discovery Services (KinaseProfiler)
How it was run: as §1

BRK(h) = molecular target: T8, BRK(h) (Homo sapiens, UniProt Q13882); settings: read-out: Inhibition(%) @ 1 µM RK-019
T8 construct: purchased Eurofins Discovery Services (KinaseProfiler)
How it was run: as §1

BrSK2(h) = molecular target: T9, BrSK2(h) (Homo sapiens, UniProt Q8IWQ3); settings: read-out: Inhibition(%) @ 1 µM RK-019
T9 construct: purchased Eurofins Discovery Services (KinaseProfiler)
How it was run: as §1

CDK6/cyclinD3(h) = molecular target: T10, CDK6/cyclinD3(h) (Homo sapiens, UniProt Q00534); settings: read-out: Inhibition(%) @ 1 µM RK-019
T10 construct: purchased Eurofins Discovery Services (KinaseProfiler)
How it was run: as §1

CaMKIδ(h) = molecular target: T11, CaMKIδ(h) (Homo sapiens, UniProt Q8IU85); settings: read-out: Inhibition(%) @ 1 µM RK-019
T11 construct: purchased Eurofins Discovery Services (KinaseProfiler)
How it was run: as §1

DYRK1A(h) = molecular target: T12, DYRK1A(h) (Homo sapiens, UniProt Q13627); settings: read-out: Inhibition(%) @ 1 µM RK-019
T12 construct: purchased Eurofins Discovery Services (KinaseProfiler)
How it was run: as §1

DYRK3(h) = molecular target: T13, DYRK3(h) (Homo sapiens, UniProt O43781); settings: read-out: Inhibition(%) @ 1 µM RK-019
T13 construct: purchased Eurofins Discovery Services (KinaseProfiler)
How it was run: as §1

FGFR2(h) = molecular target: T14, FGFR2(h) (Homo sapiens, UniProt P21802)
T14 construct: purchased Eurofins Discovery Services (KinaseProfiler)
How it was run: as §1

Fms(Y969C)(h) = molecular target: T15, Fms(Y969C)(h) (Homo sapiens, UniProt P07333, Y969C); settings: read-out: Inhibition(%) @ 1 µM RK-019
T15 construct: purchased Eurofins Discovery Services (KinaseProfiler)
How it was run: as §1

IKKα(h) = molecular target: T16, IKKα(h) (Homo sapiens, UniProt O15111); settings: read-out: Inhibition(%) @ 1 µM RK-019
T16 construct: purchased Eurofins Discovery Services (KinaseProfiler)
How it was run: as §1

IRAK4(h) = molecular target: T17, IRAK4(h) (Homo sapiens, UniProt Q9NWZ3); settings: read-out: Inhibition(%) @ 1 µM RK-019
T17 construct: purchased Eurofins Discovery Services (KinaseProfiler)
How it was run: as §1

LTK(h) = molecular target: T18, LTK(h) (Homo sapiens, UniProt P29376); settings: read-out: Inhibition(%) @ 1 µM RK-019
T18 construct: purchased Eurofins Discovery Services (KinaseProfiler)
How it was run: as §1

Lck(h) = molecular target: T19, Lck(h) (Homo sapiens, UniProt P06239); settings: read-out: Inhibition(%) @ 1 µM RK-019
T19 construct: purchased Eurofins Discovery Services (KinaseProfiler)
How it was run: as §1

NEK11(h) = molecular target: T20, NEK11(h) (Homo sapiens, UniProt Q8NG66); settings: read-out: Inhibition(%) @ 1 µM RK-019
T20 construct: purchased Eurofins Discovery Services (KinaseProfiler)
How it was run: as §1

NEK3(h) = molecular target: T21, NEK3(h) (Homo sapiens, UniProt P51956); settings: read-out: Inhibition(%) @ 1 µM RK-019
T21 construct: purchased Eurofins Discovery Services (KinaseProfiler)
How it was run: as §1

PDHK2(h) = molecular target: T22, PDHK2(h) (Homo sapiens, UniProt Q15119); settings: read-out: Inhibition(%) @ 1 µM RK-019
T22 construct: purchased Eurofins Discovery Services (KinaseProfiler)
How it was run: as §1

PKCα(h) = molecular target: T23, PKCα(h) (Homo sapiens, UniProt P17252); settings: read-out: Inhibition(%) @ 1 µM RK-019
T23 construct: purchased Eurofins Discovery Services (KinaseProfiler)
How it was run: as §1

PKCη(h) = molecular target: T24, PKCη(h) (Homo sapiens, UniProt P24723); settings: read-out: Inhibition(%) @ 1 µM RK-019
T24 construct: purchased Eurofins Discovery Services (KinaseProfiler)
How it was run: as §1

PKCθ(h) = molecular target: T25, PKCθ(h) (Homo sapiens, UniProt Q04759); settings: read-out: Inhibition(%) @ 1 µM RK-019
T25 construct: purchased Eurofins Discovery Services (KinaseProfiler)
How it was run: as §1

PRK2(h) = molecular target: T26, PRK2(h) (Homo sapiens, UniProt Q16513); settings: read-out: Inhibition(%) @ 1 µM RK-019
T26 construct: purchased Eurofins Discovery Services (KinaseProfiler)
How it was run: as §1

PRKG2(h) = molecular target: T27, PRKG2(h) (Homo sapiens, UniProt Q13237); settings: read-out: Inhibition(%) @ 1 µM RK-019
T27 construct: purchased Eurofins Discovery Services (KinaseProfiler)
How it was run: as §1

Pim-1(h) = molecular target: T28, Pim-1(h) (Homo sapiens, UniProt P11309); settings: read-out: Inhibition(%) @ 1 µM RK-019
T28 construct: purchased Eurofins Discovery Services (KinaseProfiler)
How it was run: as §1

Plk1(h) = molecular target: T29, Plk1(h) (Homo sapiens, UniProt P53350); settings: read-out: Inhibition(%) @ 1 µM RK-019
T29 construct: purchased Eurofins Discovery Services (KinaseProfiler)
How it was run: as §1

Rsk2(h) = molecular target: T30, Rsk2(h) (Homo sapiens, UniProt P51812); settings: read-out: Inhibition(%) @ 1 µM RK-019
T30 construct: purchased Eurofins Discovery Services (KinaseProfiler)
How it was run: as §1

SAPK2a(T106M)(h) = molecular target: T31, SAPK2a(T106M)(h) (Homo sapiens, UniProt Q16539, T106M); settings: read-out: Inhibition(%) @ 1 µM RK-019
T31 construct: purchased Eurofins Discovery Services (KinaseProfiler)
How it was run: as §1

SRPK2(h) = molecular target: T32, SRPK2(h) (Homo sapiens, UniProt P78362); settings: read-out: Inhibition(%) @ 1 µM RK-019
T32 construct: purchased Eurofins Discovery Services (KinaseProfiler)
How it was run: as §1

STK32A(h) = molecular target: T33, STK32A(h) (Homo sapiens, UniProt Q8WU08); settings: read-out: Inhibition(%) @ 1 µM RK-019
T33 construct: purchased Eurofins Discovery Services (KinaseProfiler)
How it was run: as §1

TAF1L(h) = molecular target: T34, TAF1L(h) (Homo sapiens, UniProt Q8IZX4); settings: read-out: Inhibition(%) @ 1 µM RK-019
T34 construct: purchased Eurofins Discovery Services (KinaseProfiler)
How it was run: as §1

TTK(h) = molecular target: T35, TTK(h) (Homo sapiens, UniProt P33981); settings: read-out: Inhibition(%) @ 1 µM RK-019
T35 construct: purchased Eurofins Discovery Services (KinaseProfiler)
How it was run: as §1

ULK3(h) = molecular target: T36, ULK3(h) (Homo sapiens, UniProt Q6PHR2); settings: read-out: Inhibition(%) @ 1 µM RK-019
T36 construct: purchased Eurofins Discovery Services (KinaseProfiler)
How it was run: as §1

cSRC(h) = molecular target: T37, cSRC(h) (Homo sapiens, UniProt P12931); settings: read-out: Inhibition(%) @ 1 µM RK-019
T37 construct: purchased Eurofins Discovery Services (KinaseProfiler)
How it was run: as §1

T14 sequence (P21802 22-821): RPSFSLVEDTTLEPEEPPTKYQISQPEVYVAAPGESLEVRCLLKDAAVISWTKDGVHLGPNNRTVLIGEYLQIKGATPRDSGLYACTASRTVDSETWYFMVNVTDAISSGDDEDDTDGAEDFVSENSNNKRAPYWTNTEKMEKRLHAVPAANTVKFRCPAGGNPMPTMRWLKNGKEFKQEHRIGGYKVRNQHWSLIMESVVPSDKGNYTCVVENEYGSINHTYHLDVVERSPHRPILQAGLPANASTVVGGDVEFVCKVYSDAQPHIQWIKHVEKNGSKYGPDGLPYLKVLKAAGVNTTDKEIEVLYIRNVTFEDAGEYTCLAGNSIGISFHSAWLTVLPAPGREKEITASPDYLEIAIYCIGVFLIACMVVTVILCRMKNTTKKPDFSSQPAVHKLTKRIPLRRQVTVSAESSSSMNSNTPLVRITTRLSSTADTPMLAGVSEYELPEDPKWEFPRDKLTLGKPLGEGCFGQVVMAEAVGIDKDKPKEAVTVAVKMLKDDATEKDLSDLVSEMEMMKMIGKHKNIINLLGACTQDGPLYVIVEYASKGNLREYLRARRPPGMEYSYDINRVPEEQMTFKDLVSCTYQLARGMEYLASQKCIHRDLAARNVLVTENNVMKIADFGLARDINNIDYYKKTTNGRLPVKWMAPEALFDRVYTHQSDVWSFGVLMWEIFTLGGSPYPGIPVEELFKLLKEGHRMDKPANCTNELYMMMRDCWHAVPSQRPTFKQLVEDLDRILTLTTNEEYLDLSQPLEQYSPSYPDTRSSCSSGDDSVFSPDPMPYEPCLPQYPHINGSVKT
T19 sequence (P06239 whole entry): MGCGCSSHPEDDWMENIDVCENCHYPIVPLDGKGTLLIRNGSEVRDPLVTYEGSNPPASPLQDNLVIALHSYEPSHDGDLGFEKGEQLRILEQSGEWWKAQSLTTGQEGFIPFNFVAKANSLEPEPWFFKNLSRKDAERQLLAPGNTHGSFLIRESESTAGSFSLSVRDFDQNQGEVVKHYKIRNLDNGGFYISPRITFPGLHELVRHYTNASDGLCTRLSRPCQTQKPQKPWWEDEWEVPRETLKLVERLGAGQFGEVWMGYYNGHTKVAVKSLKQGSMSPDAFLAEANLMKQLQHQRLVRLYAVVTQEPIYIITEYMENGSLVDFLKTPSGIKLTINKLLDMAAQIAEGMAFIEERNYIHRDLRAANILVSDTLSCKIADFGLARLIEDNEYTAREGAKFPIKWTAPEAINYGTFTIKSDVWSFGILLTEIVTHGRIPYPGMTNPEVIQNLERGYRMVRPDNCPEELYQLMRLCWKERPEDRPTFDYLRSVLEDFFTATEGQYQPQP
T3 sequence (O00238 14-502): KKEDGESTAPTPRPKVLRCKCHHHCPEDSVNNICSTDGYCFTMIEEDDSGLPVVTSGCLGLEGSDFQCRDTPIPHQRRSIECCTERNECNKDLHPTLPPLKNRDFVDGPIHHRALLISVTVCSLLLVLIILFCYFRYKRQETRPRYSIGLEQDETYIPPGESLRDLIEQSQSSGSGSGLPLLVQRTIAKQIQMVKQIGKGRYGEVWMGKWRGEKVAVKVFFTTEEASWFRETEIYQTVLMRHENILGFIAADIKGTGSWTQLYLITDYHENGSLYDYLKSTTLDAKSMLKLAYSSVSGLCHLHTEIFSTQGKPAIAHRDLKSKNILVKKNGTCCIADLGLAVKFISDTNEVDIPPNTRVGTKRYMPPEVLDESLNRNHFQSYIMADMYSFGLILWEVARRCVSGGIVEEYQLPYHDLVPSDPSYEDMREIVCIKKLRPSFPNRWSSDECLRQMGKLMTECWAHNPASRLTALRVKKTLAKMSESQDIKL
T32 sequence (P78362 whole entry): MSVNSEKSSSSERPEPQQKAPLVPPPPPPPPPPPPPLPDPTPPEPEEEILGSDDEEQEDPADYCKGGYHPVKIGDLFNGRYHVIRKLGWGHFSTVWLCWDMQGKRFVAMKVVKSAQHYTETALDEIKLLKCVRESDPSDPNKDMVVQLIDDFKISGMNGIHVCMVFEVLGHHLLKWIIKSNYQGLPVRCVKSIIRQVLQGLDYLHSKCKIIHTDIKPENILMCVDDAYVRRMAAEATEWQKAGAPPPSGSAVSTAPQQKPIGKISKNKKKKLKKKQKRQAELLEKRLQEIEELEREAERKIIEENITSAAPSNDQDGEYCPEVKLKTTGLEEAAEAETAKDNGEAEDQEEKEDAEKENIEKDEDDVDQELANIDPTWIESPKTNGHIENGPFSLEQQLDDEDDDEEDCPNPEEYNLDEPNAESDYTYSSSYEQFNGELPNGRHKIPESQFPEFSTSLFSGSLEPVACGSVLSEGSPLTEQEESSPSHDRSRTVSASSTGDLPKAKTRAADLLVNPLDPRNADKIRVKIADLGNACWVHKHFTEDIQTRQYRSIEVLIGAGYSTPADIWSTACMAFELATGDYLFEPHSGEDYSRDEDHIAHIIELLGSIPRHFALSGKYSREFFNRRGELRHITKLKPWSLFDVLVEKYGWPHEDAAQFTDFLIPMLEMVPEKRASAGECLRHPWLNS
T26 sequence (Q16513 whole entry): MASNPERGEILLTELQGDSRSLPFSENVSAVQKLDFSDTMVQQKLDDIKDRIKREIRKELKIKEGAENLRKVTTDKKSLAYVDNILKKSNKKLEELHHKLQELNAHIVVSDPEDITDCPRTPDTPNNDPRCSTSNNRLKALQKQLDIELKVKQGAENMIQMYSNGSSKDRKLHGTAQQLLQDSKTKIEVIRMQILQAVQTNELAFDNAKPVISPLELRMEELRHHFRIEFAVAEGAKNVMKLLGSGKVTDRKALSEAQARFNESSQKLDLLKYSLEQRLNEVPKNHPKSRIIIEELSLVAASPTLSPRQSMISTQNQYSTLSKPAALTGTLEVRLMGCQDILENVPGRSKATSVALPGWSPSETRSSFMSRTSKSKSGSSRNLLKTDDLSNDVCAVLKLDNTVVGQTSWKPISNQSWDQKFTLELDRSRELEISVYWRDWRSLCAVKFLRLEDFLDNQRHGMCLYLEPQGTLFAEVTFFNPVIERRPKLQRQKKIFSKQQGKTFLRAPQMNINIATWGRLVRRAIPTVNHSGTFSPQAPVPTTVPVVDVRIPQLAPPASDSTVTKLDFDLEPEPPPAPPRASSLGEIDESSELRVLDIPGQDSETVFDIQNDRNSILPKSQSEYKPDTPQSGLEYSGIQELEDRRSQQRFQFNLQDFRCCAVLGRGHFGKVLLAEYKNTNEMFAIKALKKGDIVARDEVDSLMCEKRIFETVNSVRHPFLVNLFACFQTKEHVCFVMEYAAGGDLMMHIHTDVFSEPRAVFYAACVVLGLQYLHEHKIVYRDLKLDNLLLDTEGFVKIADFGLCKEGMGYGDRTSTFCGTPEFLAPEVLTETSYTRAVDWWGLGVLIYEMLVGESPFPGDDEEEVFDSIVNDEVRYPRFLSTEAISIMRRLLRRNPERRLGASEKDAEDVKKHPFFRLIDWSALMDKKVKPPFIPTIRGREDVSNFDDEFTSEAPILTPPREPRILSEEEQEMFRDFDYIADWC
T9 sequence (Q8IWQ3 whole entry): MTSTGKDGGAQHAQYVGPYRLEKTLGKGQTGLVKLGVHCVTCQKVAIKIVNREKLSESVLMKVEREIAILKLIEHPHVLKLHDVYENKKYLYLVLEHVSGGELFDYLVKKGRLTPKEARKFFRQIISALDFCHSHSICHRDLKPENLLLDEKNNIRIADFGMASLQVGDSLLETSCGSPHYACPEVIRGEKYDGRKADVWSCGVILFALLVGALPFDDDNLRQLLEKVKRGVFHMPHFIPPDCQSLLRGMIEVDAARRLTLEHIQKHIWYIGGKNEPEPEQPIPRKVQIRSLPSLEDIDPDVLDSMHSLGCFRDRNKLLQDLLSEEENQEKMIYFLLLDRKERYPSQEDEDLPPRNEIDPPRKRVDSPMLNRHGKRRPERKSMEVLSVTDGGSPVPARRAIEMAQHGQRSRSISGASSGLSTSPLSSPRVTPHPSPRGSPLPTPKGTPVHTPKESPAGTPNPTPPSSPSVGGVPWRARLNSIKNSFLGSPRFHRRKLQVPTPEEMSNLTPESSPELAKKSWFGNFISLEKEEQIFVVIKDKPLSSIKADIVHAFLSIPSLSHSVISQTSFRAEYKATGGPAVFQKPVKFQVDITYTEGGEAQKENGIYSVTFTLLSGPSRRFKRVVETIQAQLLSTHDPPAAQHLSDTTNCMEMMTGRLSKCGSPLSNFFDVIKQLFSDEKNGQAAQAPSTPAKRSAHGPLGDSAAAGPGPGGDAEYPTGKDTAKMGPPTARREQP
T35 sequence (P33981 whole entry): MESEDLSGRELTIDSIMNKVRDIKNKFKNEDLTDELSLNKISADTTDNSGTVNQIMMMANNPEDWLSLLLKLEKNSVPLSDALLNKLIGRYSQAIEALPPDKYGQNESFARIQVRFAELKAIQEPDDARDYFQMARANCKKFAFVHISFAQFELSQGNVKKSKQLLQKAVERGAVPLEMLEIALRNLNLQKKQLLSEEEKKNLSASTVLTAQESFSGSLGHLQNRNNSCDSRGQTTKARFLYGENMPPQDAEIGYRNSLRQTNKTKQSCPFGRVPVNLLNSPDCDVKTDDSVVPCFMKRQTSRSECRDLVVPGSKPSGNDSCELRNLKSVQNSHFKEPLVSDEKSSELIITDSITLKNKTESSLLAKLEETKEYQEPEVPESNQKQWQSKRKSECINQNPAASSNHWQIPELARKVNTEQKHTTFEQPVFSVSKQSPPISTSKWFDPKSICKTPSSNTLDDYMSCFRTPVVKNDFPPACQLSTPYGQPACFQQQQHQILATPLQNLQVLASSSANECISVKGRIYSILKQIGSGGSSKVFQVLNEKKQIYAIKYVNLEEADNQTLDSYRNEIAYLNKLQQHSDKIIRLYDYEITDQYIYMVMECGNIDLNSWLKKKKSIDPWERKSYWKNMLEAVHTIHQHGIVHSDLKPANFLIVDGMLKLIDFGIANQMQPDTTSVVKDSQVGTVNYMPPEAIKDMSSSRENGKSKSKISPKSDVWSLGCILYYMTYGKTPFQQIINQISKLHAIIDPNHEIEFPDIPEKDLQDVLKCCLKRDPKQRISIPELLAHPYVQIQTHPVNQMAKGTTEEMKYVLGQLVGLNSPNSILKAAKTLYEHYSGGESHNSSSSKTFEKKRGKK

Compound: COc1cc(OC)cc(N(CCN[C@H](C)CO)c2ccc3ncc(-c4cnn(C)c4)c(=O)n3c2)c1 [RK-019, (R)-7-((3,5-dimethoxyphenyl) (2-((1-hydroxypropan-2-yl)amino)ethyl)amino)-3-(1-methyl-1H-pyrazol-4-yl)-4H-pyrido [1,2-a]pyrimidin-4-one]
- activity at 1 µM (AAK1(h)): 91%
- activity at 1 µM (ALK1(h)): 98%
- activity at 1 µM (ALK6(h)): 107%
- activity at 1 µM (AMPKα1(h)): 107%
- activity at 1 µM (Abl (Q252H) (h)): 46%
- activity at 1 µM (Abl(h)): 40%
- activity at 1 µM (Aurora-C(h)): 86%
- activity at 1 µM (BRK(h)): 89%
- activity at 1 µM (BrSK2(h)): 96%
- activity at 1 µM (CDK6/cyclinD3(h)): 106%
- activity at 1 µM (CaMKIδ(h)): 98%
- activity at 1 µM (DYRK1A(h)): 101%
- activity at 1 µM (DYRK3(h)): 88%
- activity at 1 µM (FGFR2(h); FGFR2(h), read-out: Inhibition(%) @ 1 µM RK-019): 1%
- inhibition at 1 µM (FGFR2(h); FGFR2, 1 µM, read-out: inhibition (hit in panel)): > 90%
- activity at 1 µM (Fms(Y969C)(h)): 31%
- activity at 1 µM (IKKα(h)): 100%
- activity at 1 µM (IRAK4(h)): 100%
- activity at 1 µM (LTK(h)): 101%
- activity at 1 µM (Lck(h)): 30%
- activity at 1 µM (NEK11(h)): 118%
- activity at 1 µM (NEK3(h)): 87%
- activity at 1 µM (PDHK2(h)): 104%
- activity at 1 µM (PKCα(h)): 97%
- activity at 1 µM (PKCη(h)): 108%
- activity at 1 µM (PKCθ(h)): 119%
- activity at 1 µM (PRK2(h)): 106%
- activity at 1 µM (PRKG2(h)): 100%
- activity at 1 µM (Pim-1(h)): 111%
- activity at 1 µM (Plk1(h)): 117%
- activity at 1 µM (Rsk2(h)): 149%
- activity at 1 µM (SAPK2a(T106M)(h)): 90%
- activity at 1 µM (SRPK2(h)): 134%
- activity at 1 µM (STK32A(h)): 86%
- activity at 1 µM (TAF1L(h)): 100%
- activity at 1 µM (TTK(h)): 98%
- activity at 1 µM (ULK3(h)): 91%
- activity at 1 µM (cSRC(h)): 54%
